Laboratory results reported in patent US20220062240A1, “METHODS OF TREATING CANCER USING A CLK INHIBITOR” (BioSplice Therapeutics, Inc., priority 2018, published 2022).
Where two headings read alike, the source gives them in different places.

Legend:
CLK2 = molecular target: T1, CLK2 (Homo sapiens, UniProt P49760); assay: CLK2 kinase activity assay (Z-lyte, Ser/Thr 6 peptide); format: biochemical; conditions: recombinant CLK2 kinase, ATP 60 μM; read-out: EC50
T1 construct: purchased Thermo Fisher (Life Technologies), Z'-LYTE Kinase Assay Kits
T1 sequence (P49760 whole entry): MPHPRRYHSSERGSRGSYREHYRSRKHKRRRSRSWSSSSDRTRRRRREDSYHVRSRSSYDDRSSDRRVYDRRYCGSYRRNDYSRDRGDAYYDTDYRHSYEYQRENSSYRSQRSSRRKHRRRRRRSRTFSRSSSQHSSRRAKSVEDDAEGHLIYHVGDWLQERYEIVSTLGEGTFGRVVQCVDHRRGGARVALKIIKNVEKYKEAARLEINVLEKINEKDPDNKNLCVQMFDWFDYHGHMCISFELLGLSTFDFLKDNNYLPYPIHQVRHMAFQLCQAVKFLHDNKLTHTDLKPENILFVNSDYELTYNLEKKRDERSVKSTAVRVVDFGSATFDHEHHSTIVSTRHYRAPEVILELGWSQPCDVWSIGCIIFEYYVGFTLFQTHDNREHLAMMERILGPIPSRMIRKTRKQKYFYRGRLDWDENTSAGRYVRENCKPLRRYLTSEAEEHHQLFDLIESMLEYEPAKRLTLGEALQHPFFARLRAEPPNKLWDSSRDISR
Procedure: All reactions were performed in duplicate.

BT-549 = assay: CellTiter-Glo Viability Assay, breast cancer; format: cell-based; conditions: Homo sapiens, 96 h; BT-549, breast cancer, four days; read-out: EC50
CAMA1 = assay: CellTiter-Glo Viability Assay, breast cancer; format: cell-based; conditions: Homo sapiens, CAMA-1, 96 h; CAMA1, breast cancer, four days; read-out: EC50
DU4475 = assay: CellTiter-Glo Viability Assay, breast cancer; format: cell-based; conditions: Homo sapiens, DU-4475, 96 h; DU4475, breast cancer, four days; read-out: EC50
HCC1599 = assay: CellTiter-Glo Viability Assay, breast cancer; format: cell-based; conditions: Homo sapiens, 96 h; HCC1599, breast cancer, four days; read-out: EC50
MCF7 = assay: CellTiter-Glo Viability Assay, breast cancer; format: cell-based; conditions: Homo sapiens, 96 h; MCF7, breast cancer, four days; read-out: EC50
MDA-MB-231-Luc = assay: CellTiter-Glo Viability Assay, breast cancer; format: cell-based; conditions: Homo sapiens, 96 h; MDA-MB-231-Luc, breast cancer, four days; read-out: EC50
T47D = assay: CellTiter-Glo Viability Assay, breast cancer; format: cell-based; conditions: Homo sapiens, 96 h, breast cancer, four days, read-out: EC50
ZR-75-1 = assay: CellTiter-Glo Viability Assay, breast cancer; format: cell-based; conditions: Homo sapiens, 96 h; ZR-75-1, breast cancer, four days; read-out: EC50
all 50 cell lines = assay: CellTiter-Glo Viability Assay, average across all cell lines; format: cell-based; conditions: Homo sapiens; across all 50 cell lines; read-out: average EC50 for inhibition of cancer cell proliferation
In short: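 4-day proliferation, 37° C/5% CO2; 300-3,000 cells/well; compound in duplicate vs DMSO controls. Panel: breast, colorectal, heme/lymphoid, liver, lung, ovarian, pancreatic, prostate lines. Read-out: CellTiter-Glo ATP luminescence, EC50 from dose-response.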

[1] = tested on: colorectal cancer (6 cell lines); assay: CellTiter-Glo Viability Assay, colorectal cancer; format: cell-based; conditions: Homo sapiens, inhibition of cancer cell proliferation
[2] = tested on: haematopoietic & lymphoid tumors (13 cell lines); assay: CellTiter-Glo Viability Assay, haematopoietic & lymphoid tumors; format: cell-based; conditions: Homo sapiens, inhibition of cancer cell proliferation
[3] = tested on: liver cancer (3 cell lines); assay: CellTiter-Glo Viability Assay, liver cancer; format: cell-based; conditions: Homo sapiens, inhibition of cancer cell proliferation
[4] = tested on: lung cancer (4 cell lines); assay: CellTiter-Glo Viability Assay, lung cancer; format: cell-based; conditions: Homo sapiens, inhibition of cancer cell proliferation
[5] = tested on: ovarian cancer (4 cell lines); assay: CellTiter-Glo Viability Assay, ovarian cancer; format: cell-based; conditions: Homo sapiens, inhibition of cancer cell proliferation
[6] = tested on: pancreatic cancer (8 cell lines); assay: CellTiter-Glo Viability Assay, pancreatic cancer; format: cell-based; conditions: Homo sapiens, inhibition of cancer cell proliferation
[7] = tested on: prostate cancer (5 cell lines); assay: CellTiter-Glo Viability Assay, prostate cancer; format: cell-based; conditions: Homo sapiens
CLK3 = CLK3 (Homo sapiens, UniProt P49761); assay: CLK3 kinase activity assay (Z-lyte, Ser/Thr 18 peptide)
CLK3, sequence (P49761 whole entry): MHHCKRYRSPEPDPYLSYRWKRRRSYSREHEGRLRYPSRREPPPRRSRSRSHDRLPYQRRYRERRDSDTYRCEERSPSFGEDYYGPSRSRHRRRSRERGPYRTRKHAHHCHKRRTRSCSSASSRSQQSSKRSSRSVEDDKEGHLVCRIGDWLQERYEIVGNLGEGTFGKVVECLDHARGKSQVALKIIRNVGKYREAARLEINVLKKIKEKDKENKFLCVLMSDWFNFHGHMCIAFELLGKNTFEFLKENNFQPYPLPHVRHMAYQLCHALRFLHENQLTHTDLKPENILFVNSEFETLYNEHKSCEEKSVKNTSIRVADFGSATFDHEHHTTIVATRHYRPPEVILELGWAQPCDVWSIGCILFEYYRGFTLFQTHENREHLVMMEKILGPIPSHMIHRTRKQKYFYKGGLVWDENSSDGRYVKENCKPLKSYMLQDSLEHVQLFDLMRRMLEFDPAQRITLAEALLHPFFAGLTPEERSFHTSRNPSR

[8] = HCT-116, HCT116 cell line, read-out: Colorectal cancer, EC50 (μM) HCT116
[9] = HT-29, HT29 cell line, read-out: Colorectal cancer, EC50 (μM) HT29
[10] = SW-620, SW620 cell line, read-out: Colorectal cancer, EC50 (μM) SW620
[11] = DLD-1 cell line, read-out: Colorectal cancer, EC50 (μM) DLD-1
[12] = SW48 cell line, read-out: Colorectal cancer, EC50 (μM) SW48
[13] = SW480 cell line, read-out: Colorectal cancer, EC50 (μM) SW480
[14] = DND41, DND-41 cell line, read-out: Haematopoietic & Lymphoid tumors, EC50 (μM) DND-41
[15] = MV4-11, MV-4-11 cell line, read-out: Haematopoietic & Lymphoid tumors, EC50 (μM) MV-4-11
[16] = Rec1, REC-1 cell line, read-out: Haematopoietic & Lymphoid tumors, EC50 (μM) REC-1
[17] = SU-DHL-4, SUDHL4 cell line, read-out: Haematopoietic & Lymphoid tumors, EC50 (μM) SUDHL4
[18] = HL-60 cell line, read-out: Haematopoietic & Lymphoid tumors, EC50 (μM) HL-60
[19] = JM1 cell line, read-out: Haematopoietic & Lymphoid tumors, EC50 (μM) JM1
[20] = JURKAT, Clone E6-1 cell line, read-out: Haematopoietic & Lymphoid tumors, EC50 (μM) JURKAT, Clone E6-1
[21] = JeKo-1 cell line, read-out: Haematopoietic & Lymphoid tumors, EC50 (μM) JeKo-1
[22] = KASUMI-1 cell line, read-out: Haematopoietic & Lymphoid tumors, EC50 (μM) KASUMI-1
[23] = Loucy cell line, read-out: Haematopoietic & Lymphoid tumors, EC50 (μM) Loucy
[24] = MOLT-4 cell line, read-out: Haematopoietic & Lymphoid tumors, EC50 (μM) MOLT-4
[25] = TF-1 cell line, read-out: Haematopoietic & Lymphoid tumors, EC50 (μM) TF-1
[26] = TOLEDO cell line, read-out: Haematopoietic & Lymphoid tumors, EC50 (μM) TOLEDO
[27] = SNU-398, SNU398 cell line, read-out: Liver cancer, EC50 SNU398
[28] = HEPG2 cell line, read-out: Liver cancer, EC50 HEPG2
[29] = PLC/PRF/5 cell line, read-out: Liver cancer, EC50 PLC/PRF/5
[30] = A-427, A427 cell line, read-out: Lung cancer, EC50 (μM) A427
[31] = HCC78, HCC-78 cell line, read-out: Lung cancer, EC50 (μM) HCC-78
[32] = NCI-H460 cell line, read-out: Lung cancer, EC50 (μM) NCI-H460
[33] = NCI-H522 cell line, read-out: Lung cancer, EC50 (μM) NCI-H522
[34] = PA-1, PA1 cell line, read-out: Ovarian cancer, EC50 (μM) PA1
[35] = TOV112D, TOV-112D cell line, read-out: Ovarian cancer, EC50 (μM) TOV-112D
[36] = OV-90 cell line, read-out: Ovarian cancer, EC50 (μM) OV-90
[37] = OVCAR-3 cell line, read-out: Ovarian cancer, EC50 (μM) OVCAR-3
[38] = BXPC-3, BxPC3 cell line, read-out: Pancreatic cancer, EC50 BxPC3
[39] = CAPAN-1, Capan1 cell line, read-out: Pancreatic cancer, EC50 Capan1
[40] = Capan-2, Capan2 cell line, read-out: Pancreatic cancer, EC50 Capan2
[41] = MIA PaCa-2 cell line, read-out: Pancreatic cancer, EC50 MIA PaCa-2
[42] = PANC 05.04 cell line, read-out: Pancreatic cancer, EC50 PANC 05.04
[43] = PANC-1 cell line, read-out: Pancreatic cancer, EC50 PANC-1
[44] = UPAFII cell line, read-out: Pancreatic cancer, EC50 UPAFII
[45] = DU-145, read-out: Prostate cancer EC50 Du-145
[46] = PC-3, PC3 cell line, inhibition of cancer cell proliferation, read-out: Prostate cancer EC50 PC3
[47] = 22Rv1 cell line, inhibition of cancer cell proliferation, read-out: Prostate cancer EC50 22Rv1
[48] = LNCap clone FGC cell line, inhibition of cancer cell proliferation, read-out: Prostate cancer EC50 LNCap clone FGC
[49] = VCaP (Sigma) cell line, inhibition of cancer cell proliferation, read-out: Prostate cancer EC50 VCaP (Sigma)

[2H]c1c([2H])c([2H])c(/C=C/C(=O)Nc2cc3cc(-c4cncn4C)ccc3cn2)c([2H])c1[2H] [Compound 81]
EC50 (CLK2): 3.4 nM | EC50 (BT-549): 273 nM | EC50 (CAMA1): 429 nM | EC50 (DU4475): 152 nM | EC50 (HCC1599): 165 nM | EC50 (MCF7): 505 nM | EC50 (MDA-MB-231-Luc): 338 nM | EC50 (T47D): 471 nM | EC50 (ZR-75-1): 441 nM | EC50 (all 50 cell lines): 324 nM | EC50 [1, 8]: 0.147 µM | EC50 [1, 9]: 0.433 µM | EC50 [1, 10]: 0.135 µM | EC50 [1, 11]: 0.199 µM | EC50 [1, 12]: 0.12 µM | EC50 [1, 13]: 0.132 µM | EC50 [2, 14]: 0.213 µM | EC50 [2, 15]: 0.025 µM | EC50 [2, 16]: 0.106 µM | EC50 [2, 17]: 0.407 µM | EC50 [2, 18]: 0.235 µM | EC50 [2, 19]: 0.12 µM | EC50 [2, 20]: 0.305 µM | EC50 [2, 21]: 0.136 µM | EC50 [2, 22]: 0.206 µM | EC50 [2, 23]: 0.374 µM | EC50 [2, 24]: 0.186 µM | EC50 [2, 25]: 0.391 µM | EC50 [2, 26]: 0.13 µM | EC50 [3, 27]: 112 nM | EC50 [3, 28]: 470 nM | EC50 [3, 29]: 466 nM | EC50 [4, 30]: 0.216 µM | EC50 [4, 31]: 0.396 µM | EC50 [4, 32]: 0.329 µM | EC50 [4, 33]: 0.216 µM | EC50 [5, 34]: 0.218 µM | EC50 [5, 35]: 0.228 µM | EC50 [5, 36]: 0.838 µM | EC50 [5, 37]: 0.315 µM | EC50 [6, 38]: 848 nM | EC50 [6, 39]: 372 nM | EC50 [6, 40]: 620 nM | EC50 [6, 41]: 261 nM | EC50 [6, 42]: 564 nM | EC50 [6, 43]: 600 nM | EC50 [6, 44]: 348 nM | EC50 [7, 45]: 429 nM | EC50 [7, 46]: 287 nM | EC50 [7, 47]: 329 nM | EC50 [7, 48]: 444 nM | EC50 [7, 49]: 497 nM | EC50 (CLK3): 15.4 nM

Cc1ncc(-c2ccc3cnc(NC(=O)c4cnn(C5CCN(C)CC5)c4)cc3c2)o1 [Compound 83]
EC50 (CLK2): 2.9 nM | EC50 (BT-549): 176 nM | EC50 (CAMA1): 304 nM | EC50 (DU4475): 145 nM | EC50 (HCC1599): 99 nM | EC50 (MCF7): 491 nM | EC50 (MDA-MB-231-Luc): 193 nM | EC50 (T47D): 253 nM | EC50 (ZR-75-1): 220 nM | EC50 (all 50 cell lines): 182 nM | EC50 [1, 8]: 0.102 µM | EC50 [1, 9]: 0.182 µM | EC50 [1, 10]: 0.065 µM | EC50 [1, 11]: 0.145 µM | EC50 [1, 12]: 0.058 µM | EC50 [1, 13]: 0.117 µM | EC50 [2, 14]: 0.185 µM | EC50 [2, 15]: 0.033 µM | EC50 [2, 16]: 0.065 µM | EC50 [2, 17]: 0.151 µM | EC50 [2, 18]: 0.409 µM | EC50 [2, 19]: 0.064 µM | EC50 [2, 20]: 0.353 µM | EC50 [2, 21]: 0.064 µM | EC50 [2, 22]: 0.129 µM | EC50 [2, 23]: 0.135 µM | EC50 [2, 24]: 0.196 µM | EC50 [2, 25]: 0.256 µM | EC50 [2, 26]: 0.087 µM | EC50 [3, 27]: 50 nM | EC50 [3, 28]: 107 nM | EC50 [3, 29]: 314 nM | EC50 [4, 30]: 0.275 µM | EC50 [4, 31]: 0.173 µM | EC50 [4, 32]: 0.197 µM | EC50 [4, 33]: 0.105 µM | EC50 [5, 34]: 0.17 µM | EC50 [5, 35]: 0.121 µM | EC50 [5, 36]: 0.234 µM | EC50 [5, 37]: 0.11 µM | EC50 [6, 38]: 254 nM | EC50 [6, 39]: 198 nM | EC50 [6, 40]: 321 nM | EC50 [6, 41]: 91 nM | EC50 [6, 42]: 169 nM | EC50 [6, 43]: 291 nM | EC50 [6, 44]: 140 nM | EC50 [7, 45]: 199 nM | EC50 [7, 46]: 195 nM | EC50 [7, 47]: 140 nM | EC50 [7, 48]: 330 nM | EC50 [7, 49]: 255 nM | EC50 (CLK3): 13.6 nM
